Experimental findings from PMC6940896, “Development of a Highly Efficient Hybrid Peptide That Increases Immunomodulatory Activity Via the TLR4-Mediated Nuclear Factor-κB Signaling Pathway” (International Journal of Molecular Sciences, 2019) are described below.

No end group written: not given here.

In one data set the test system is TLR4-NF-κB pathway. Description: Western blot of TLR4-NF-κB pathway proteins in CTX-treated mice. It is filed as in vivo, mouse. The following applies: CTX-treated mice with or without LTAa, n = 3. The procedure: Sigma-Aldrich, St. Louis, MO, USA) group, a LL-37 group, a Tα1 group, and a LTAa group. For the first 3 days, CTX (80 mg/kg mouse weight) was administered intraperitoneally once daily to establish the immunosuppressed animal model. From days 4 to 10 (7 days), peptides (10 mg/kg mouse weight) were administered intraperitoneally each day. The CTX group was only treated with CTX, and the control group was given sterile saline. The dose volume was 200 μL. Twenty-four hours after the last dose, the mice were killed and their tissues and blood collected for analysis. The body weight index was calculated in the following way:(2) Index (%)=final body weight-[…] body weight/initial body weight ×100% Whole protein in the serum was collected using a whole-protein extraction kit (Nanjing KeyGEN Biotech, Nanjing, China) according to the manufacturer's instructions. The protein concentration was measured using a bicinchoninic acid kit (Nanjing KeyGEN Biotech). The different proteins were separated by sodium dodecyl sulfate polyacrylamide gel electrophoresis and transferred onto polyvinylidene difluoride membranes (Bio-Rad). […]
(In general: Immunoblotting shows a protein as a band on a membrane.)

The nature of data set [1]: Ex vivo stability in plasma. Format: in vitro ADME. The conditions noted are these: rat plasma, in vitro, 37 °C, HPLC, log-linear regression; mean ± SEM of three biological replicates; read-out: t1/2, half-life in plasma (converted). The procedure: The samples were collected into pre-chilled tubes containing 1 mL of acidic acetone (hydrochloric acid/acetone/H2O, 1:40:5, by volume). Subsequently, the mixture was centrifuged at 2 × 10^4 rpm at 4 °C for 20 min. The precipitates were dried in vacuo. The dried precipitates were dissolved in 0.5 mL of 1 M acetic acid. The peptide analysis was carried out according to the protocol for the study of Tα1 using HPLC [51]. The half-lives of the target peptides were calculated by a logarithm-linear regression analysis of the peptide concentrations.

The test system of the next data set is splenocyte T lymphocytes. The data set can be described thus: T lymphocyte subsets in splenocytes by flow cytometry. The conditions noted are these: versus group treated with CTX alone, peptide 10 mg/kg ip days 4-10, n = 12. Format: in vivo, mouse. For orientation: A flow cytometer gives signals particle by particle.
In another data set the target is T1, recombinant TLR4/MD2 (Homo sapiens, UniProt O00206+Q9Y6Y9).
T1 construct: purchased R&D Systems
T1 sequence (O00206 24-631 limits assumed, species assumed): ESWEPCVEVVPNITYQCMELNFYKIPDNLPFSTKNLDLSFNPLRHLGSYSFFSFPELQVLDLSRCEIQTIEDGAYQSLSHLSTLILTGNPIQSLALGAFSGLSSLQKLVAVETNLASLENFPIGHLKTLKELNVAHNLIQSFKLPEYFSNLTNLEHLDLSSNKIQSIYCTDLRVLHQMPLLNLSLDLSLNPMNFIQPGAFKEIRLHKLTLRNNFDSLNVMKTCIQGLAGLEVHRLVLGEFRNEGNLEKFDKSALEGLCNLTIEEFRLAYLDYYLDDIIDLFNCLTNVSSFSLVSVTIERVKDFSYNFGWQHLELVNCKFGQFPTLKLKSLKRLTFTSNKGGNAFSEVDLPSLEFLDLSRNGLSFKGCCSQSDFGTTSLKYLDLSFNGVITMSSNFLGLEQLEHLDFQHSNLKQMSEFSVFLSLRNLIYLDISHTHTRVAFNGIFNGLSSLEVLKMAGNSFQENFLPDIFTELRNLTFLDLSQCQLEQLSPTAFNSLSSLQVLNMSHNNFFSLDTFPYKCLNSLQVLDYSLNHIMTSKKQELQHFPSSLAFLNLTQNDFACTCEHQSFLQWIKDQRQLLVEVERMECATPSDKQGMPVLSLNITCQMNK
T1 sequence (Q9Y6Y9 19-160, species assumed): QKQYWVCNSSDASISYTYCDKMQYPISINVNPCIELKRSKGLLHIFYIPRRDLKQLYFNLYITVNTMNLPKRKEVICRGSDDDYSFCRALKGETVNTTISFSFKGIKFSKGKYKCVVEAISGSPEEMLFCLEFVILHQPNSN
Description: Surface plasmon resonance binding to immobilized TLR4/MD2. The conditions noted are these: SPR, ProteOn XPR36, GLH chip, 25 °C, PBS 0.1% Tween 20 with 2% DMSO, 1:1 model, 0-10 μM peptide. The procedure: Surface plasmon resonance (SPR) experiments were performed using a ProteOn^TM XPR36 instrument (Bio-Rad, Hercules, CA, USA) with a ProteOn^TM GLH sensor chip (Bio-Rad) at 25 °C. PBS supplemented with 0.1% Tween 20 (containing 2% dimethyl sulfoxide) was used as a running buffer and was continuously passed into the reaction chamber at 30 μL/min. A SPR sensing chip with recombinant TLR4/MD2 (R&D Systems, Minneapolis, MN, USA) that was immobilized by amino coupling was used to capture the peptide, according to the manufacturer’s protocol. […] The running buffer was injected into the empty channel as a reference. Sensor chip regeneration and desorption were achieved by injecting 10 mM Gly-HCl buffer (pH 2.5) before the next round of analyses. The experimental data were analyzed by ProteOn Manager^TM software (version 2.0). Binding curves were processed for the initial injection alignment and baseline, and a reference-subtracted sensorgram was globally fitted to the curves to describe a homogeneous 1:1 model. Data from the protein surfaces were grouped together to fit the kinetic rate constants (Ka and Kd). The equilibrium dissociation constant (KD) for the peptide-TLR4/MD2 interaction was calculated using the following equation:(5) KD=Kd/Ka

The next data set relates to peritoneal macrophages. Description: Peritoneal macrophage phagocytosis (neutral red uptake) in CTX-immunosuppressed mice. It is filed as in vivo, mouse. The conditions noted are these: peritoneal macrophages of mice, OD 540 nm, CTX 80 mg/kg ip days 1-3, peptide 10 mg/kg ip days 4-10, control group 55.67%, n = 12.
In a further data set the test system is RAW264.7 cells. The data set can be described thus: Cytokine production in RAW264.7 macrophages (ELISA). Format: cell-based, mouse. The conditions noted are these: RAW264.7, 10 μg/mL peptide, 12 h (Figure 3 legend; method says 24 h), n = 5. The procedure: RAW264.7 cells were stimulated with or without 10 μg/mL peptides for 24 h at 37 °C in a humidified incubator with 5% CO2. Levels of TNF-α, IL-6, and IL-1β in the culture supernatant were measured using enzyme-linked immunosorbent assay (ELISA) kits according to the manufacturer’s instructions

The subject of data set [2] is CTX-immunosuppressed Balb/c mice. Description: Body weight and immune organ indices in CTX-immunosuppressed mice. Format: in vivo, mouse. The following applies: CTX 80 mg/kg ip days 1-3, peptide 10 mg/kg ip days 4-10, n = 12. The text has this:
Female specific-pathogen-free (SPF) Balb/c mice (6-8 weeks of age, weighing 20 ± 2.0 g) were purchased from Charles River (Beijing, China). The mice were housed in a SPF environment at room temperature with a relative humidity of 55 ± 10% and allowed free access to food and water during the experiments. All of the animal protocols were approved by the Institutional Animal Care and Ethics Committee of the China Agricultural University (CAU20170430-4). […] Sigma-Aldrich, St. Louis, MO, USA) group, a LL-37 group, a Tα1 group, and a LTAa group. For the first 3 days, CTX (80 mg/kg mouse weight) was administered intraperitoneally once daily to establish the immunosuppressed animal model. From days 4 to 10 (7 days), peptides (10 mg/kg mouse weight) were administered intraperitoneally each day. The CTX group was only treated with CTX, and the control group was given sterile saline. The dose volume was 200 μL. Twenty-four hours after the last dose, the mice were killed and their tissues and blood collected for analysis. The body weight index was calculated in the following way:(2) Index (%)=final body weight-[…] body weight/initial body weight ×100% Spleen and thymus indices were calculated in the following way:(3) Index (mg/kg)=weight of thymus or spleen/body weight

Description for peritoneal macrophages: Peritoneal macrophages were aseptically obtained from the different groups of mice by peritoneal lavage with 5 mL ice-cold phosphate-buffered saline (PBS). The peritoneal macrophages were further isolated by incubating peritoneal exudate cells at 37 °C in a moist atmosphere (5% CO2, 95% air) for 3 h to allow the cells to adhere. The adherent cells were washed twice and collected as peritoneal macrophages.
The phagocytic capacity of the peritoneal macrophages was measured by the neutral red uptake method [52]. […] The OD was measured using a microplate reader at 540 nm. The phagocytic rate was calculated in the following way:(4) hagocytic rate (%)=OD540(sample)/OD540(control) ×100% where OD540 (sample) is the absorbance at 540 nm by peptide-treated cells and OD540 (control) is the absorbance at 540 nm by the cells without peptides treated.
Description for splenocyte T lymphocytes: The spleen was collected, ground, and passed through 40-μm-mesh cell strainers filled with PBS to harvest the cell suspension. The cells were stained with CD3- PerCP, CD4-APC, and CD8-FITC for 30 min at 4 °C for T lymphocyte measurements. The results were analyzed using a Guava® easyCyte^TM 6-21 system and Guavasoft 3.1.1 software (Millipore, Burlington, MA, USA).

Turning to IGKEFKRIVQRIKDFLRNLVPRTEKEKKEVVE [LTAa], the “TLR4, MyD88 and TRAF6 expression” value in the data set with TLR4-NF-κB pathway is recorded as “increasing”. Also, the half-life in data set [1] is 4.2 ± 1.13 h. Moreover, the “CD4+:CD8+ T lymphocyte ratio” value in the data set with splenocyte T lymphocytes was “higher”. On recombinant TLR4/MD2, the Ka for binding to TLR4/MD2 was 7.38e+09 M⁻¹ s⁻¹ and the Kd (rate constant) for binding to TLR4/MD2 is 0.362 s⁻¹. Moreover, the macrophage phagocytic rate entry in the data set with peritoneal macrophages is reported as “significantly higher phagocytic rates than those in the Tα1- or LL-37-treated groups”. Also, in the data set on RAW264.7 cells, the “TNF-α, IL-6 and IL-1β production/secretion” value is “remarkable increases”. Further, in data set [2], the body weight entry is listed as “rapidly recovered their weight”; the “spleen and thymus index” value was “reversed this effect”.
